Source: article PMC6556873, “Rapid Covalent-Probe Discovery by Electrophile-Fragment Screening” (Journal of the American Chemical Society, 2019)
Like-named read-outs stand apart in the source and are kept apart here.

What was measured:
in vitro [1] = test: in vitro; parameters: species or system CCD841, HEK293; conditions: human, hb2 cells, read-out: HB-2 Cells Viability (%)
PCAF = target: T1, PCAF (Homo sapiens, UniProt Q92831); parameters: Intact protein LC/MS covalent labelling, fragments in pools of five, 200 uM each, 4 °C; conditions: 24 h, 4 °C, pool of five; 200 µM; covalent
T1 construct: gene KAT2B
T1 sequence (Q92831 whole entry, the tested form may be a part): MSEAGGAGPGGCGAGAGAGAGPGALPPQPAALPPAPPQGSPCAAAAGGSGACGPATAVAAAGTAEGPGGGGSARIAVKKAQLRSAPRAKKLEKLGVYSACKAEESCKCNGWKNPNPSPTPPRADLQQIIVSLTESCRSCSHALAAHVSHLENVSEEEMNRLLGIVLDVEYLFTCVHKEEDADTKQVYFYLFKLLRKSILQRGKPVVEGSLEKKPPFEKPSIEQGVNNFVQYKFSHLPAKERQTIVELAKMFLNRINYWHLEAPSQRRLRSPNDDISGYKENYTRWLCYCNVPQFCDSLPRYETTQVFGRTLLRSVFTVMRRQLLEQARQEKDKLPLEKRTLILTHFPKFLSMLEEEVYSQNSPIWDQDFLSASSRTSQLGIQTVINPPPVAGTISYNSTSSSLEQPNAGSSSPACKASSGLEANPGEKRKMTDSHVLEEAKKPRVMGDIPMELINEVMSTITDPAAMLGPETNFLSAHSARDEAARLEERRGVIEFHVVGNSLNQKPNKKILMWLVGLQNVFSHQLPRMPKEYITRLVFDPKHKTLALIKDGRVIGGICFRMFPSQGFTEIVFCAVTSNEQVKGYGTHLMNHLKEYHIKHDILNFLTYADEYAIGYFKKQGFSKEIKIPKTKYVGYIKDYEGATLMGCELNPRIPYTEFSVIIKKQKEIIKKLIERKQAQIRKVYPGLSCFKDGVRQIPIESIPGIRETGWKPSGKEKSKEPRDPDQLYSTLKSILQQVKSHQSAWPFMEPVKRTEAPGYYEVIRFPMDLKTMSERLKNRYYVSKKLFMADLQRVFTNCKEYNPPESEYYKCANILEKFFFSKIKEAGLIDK
Description: (§1) Incubations were performed at 200 μM for each compound and 2 μM of protein (10 μM for BSA) for 24 h at 4 °C with moderate shaking. Incubation buffers varied among proteins (PBS pH 7.4 for QSOX1 and BSA; 10 mM HEPES pH 7.5, 0.3 M NaCl, 0.5 mM TCEP for PCAF, UPS8, and NUDT7; […]; 10 mM Na2HPO4 pH 7.5 100 mM NaCl 5 mM β-mercaptoethanol for NV3CP; 20 mM Na phosphate pH 7.5 for NNMT; […]. The reaction was stopped by quenching with formic acid, 0.4% final concentration. Each protein was incubated with the electrophilic library in pools of five compounds per well. The pool’s composition maximized the difference in mass between fragments in the same well. Incubations were performed with each fragment at 200 μM, for 24 h at 4 °C, to allow the screening of proteins that are not stable for long time periods at higher temperatures. Following incubation, we used intact protein [compound left out] chromatography/mass spectrometry (LC/MS) to identify the fragments and quantify their labeling (Figure 3A). […] There was good agreement between the percent of labeling of NUDT7 by 100 random individual compounds and that obtained in pools of five (R^2=0.78; Figure S6 and Data set 2 in the Supporting Information).

NUDT7 = target: T2, NUDT7 (Homo sapiens, UniProt P0C024); parameters: Intact protein LC/MS covalent labelling, fragments in pools of five, 200 uM each, 4 °C; conditions: 24 h, 4 °C, pool of five; 200 µM; covalent
T2 construct: residues 14-235, E. coli, pNIC28-Bsa4, N-terminal His6 tag removed by TEV, construct 26672 Da
T2 sequence (P0C024 14-235): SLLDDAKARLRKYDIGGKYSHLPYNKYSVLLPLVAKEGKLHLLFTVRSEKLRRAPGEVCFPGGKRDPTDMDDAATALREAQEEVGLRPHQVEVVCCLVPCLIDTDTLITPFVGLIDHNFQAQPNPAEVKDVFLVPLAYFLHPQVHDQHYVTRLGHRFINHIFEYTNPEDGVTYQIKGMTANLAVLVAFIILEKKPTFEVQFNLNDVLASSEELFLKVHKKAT
Description: as §1

OTUB2 (OTUB2A) = target: T3, OTUB2 (OTUB2A) (Homo sapiens, UniProt Q96DC9); parameters: Intact protein LC/MS covalent labelling, fragments in pools of five, 200 uM each, 4 °C; conditions: 24 h, 4 °C, pool of five; 200 µM; covalent
T3 construct: full length residues 1-234, E. coli BL21(DE3)-R3, His tag removed by TEV, construct 27312 Da
T3 sequence (Q96DC9 1-234): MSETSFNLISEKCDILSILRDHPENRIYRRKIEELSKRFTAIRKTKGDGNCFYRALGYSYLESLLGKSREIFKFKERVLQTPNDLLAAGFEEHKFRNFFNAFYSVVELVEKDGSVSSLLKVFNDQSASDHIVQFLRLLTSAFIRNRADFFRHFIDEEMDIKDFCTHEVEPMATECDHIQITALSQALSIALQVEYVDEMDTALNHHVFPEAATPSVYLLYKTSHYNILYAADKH
Description: as §1

BSA = target: T4, BSA (Bos taurus, UniProt P02769); parameters: Intact protein LC/MS covalent labelling, fragments in pools of five, 200 uM each, 4 °C; conditions: 24 h, 4 °C, pool of five; 200 µM; covalent
T4 construct: gene ALB
T4 sequence (P02769 whole entry, the tested form may be a part): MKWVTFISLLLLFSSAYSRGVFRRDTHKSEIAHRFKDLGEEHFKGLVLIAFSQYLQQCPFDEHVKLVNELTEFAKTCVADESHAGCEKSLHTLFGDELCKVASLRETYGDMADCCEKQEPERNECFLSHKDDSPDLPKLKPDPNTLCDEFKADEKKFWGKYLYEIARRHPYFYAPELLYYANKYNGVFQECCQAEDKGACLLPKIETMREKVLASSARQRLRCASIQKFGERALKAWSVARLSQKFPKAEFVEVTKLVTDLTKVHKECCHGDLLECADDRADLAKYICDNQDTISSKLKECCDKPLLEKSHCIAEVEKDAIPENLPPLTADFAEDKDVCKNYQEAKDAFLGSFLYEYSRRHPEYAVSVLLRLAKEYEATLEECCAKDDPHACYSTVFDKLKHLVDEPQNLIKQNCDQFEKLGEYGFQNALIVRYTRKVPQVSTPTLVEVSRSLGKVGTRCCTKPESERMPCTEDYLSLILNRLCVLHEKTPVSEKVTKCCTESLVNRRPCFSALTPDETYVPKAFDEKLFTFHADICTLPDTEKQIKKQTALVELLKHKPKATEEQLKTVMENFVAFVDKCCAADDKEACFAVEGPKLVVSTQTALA
Description: as §1

in vitro [2] = test: in vitro; parameters: species or system HB2, HEK293; conditions: human, ccd841 cells
in vitro [3] = test: in vitro; parameters: species or system HB2, CCD841; conditions: human, hek293 cells

Row | SMILES | PCAF (PCAF) | NUDT7 (NUDT7) | OTUB2 (OTUB2 (OTUB2A)) | BSA (BSA) | viability at 48 h, 10 µM (in vitro [1]) | viability at 48 h, 10 µM (in vitro [2]) | viability at 48 h, 10 µM (in vitro [3])
1 | O=C1CN(C(=O)CCl)CCN1 [PCM-0103008] | 0 | 0 | 0 | 0 | 95.3% | 92.8% | 86.5%
2 | O=C(CCl)N1CCOC2CCCCC21 (centres unmarked) [PCM-0102940] | 0 | 0 | 0 | 0 | 93.7% | 95.8% | 74%
3 | COC(=O)c1cccc(NC(=O)CCl)c1O [PCM-0102851] | 0 | 0.1 | 0.23 | 0 | 106% | 116% | 108%
4 | C=CC(=O)Nc1cc(N)ccc1F [PCM-0102533] | 0 | 0 | 0 | 0 | 108% | 113% | 75.6%
5 | N#Cc1c(NC(=O)CCl)sc2c1CCC2 [PCM-0102452] | 0 | 0 | 0.07 | 0 | 87.2% | 93.5% | 96.6%
6 | C=CC(=O)N1CC(NC(=O)C(F)(F)F)CCC1C(F)(F)F (centres unmarked) [PCM-0102603] | 0 | 0 | 0 | 0 | 97.9% | 104% | 110%
7 | O=C(CCl)N1CCCC(c2nc3ccccc3s2)C1 (centres unmarked) [PCM-0102425] | 0 | 0.28 | 0 | 0 | 4.1% | 3.5% | 9.4%
8 | C=CC(=O)Nc1ccc2c(c1)NC(=O)CO2 [PCM-0102499] | 0 | 0.1 | 0 | 0 | 104% | 108% | 71.7%
9 | O=C(CCl)Nc1ccc(Cl)cc1C(=O)O [PCM-0102127] | 0 | 0 | 0.1 | 0 | 100% | 104% | 86.8%
10 | C=CC(=O)N1CCn2c(cc3ccc(Cl)cc32)C1 [PCM-0102503] | 0 | 0 | 0 | 0 | 98.2% | 102% | 74.4%
11 | Cc1n[nH]c(C)c1NC(=O)CCl [PCM-0102588] | 0 | 0 | 0 | 0 | 102% | 98.7% | 98.6%
12 | CS(=O)(=O)N1CCN(C(=O)CCl)CC1 [PCM-0102417] | 0 | 0 | 0 | 0 | 89.4% | 78.8% | 70.1%
13 | CS(=O)(=O)c1ccc(Cl)c(NC(=O)CCl)c1 [PCM-0102220] | 0 | 0.05 | 0 | 0 | 45.5% | 60.9% | 21.3%
14 | O=C(CCl)N1CCN(C(=O)c2cccs2)CC1 [PCM-0102306] | 0 | 0 | 0 | 0 | 39.9% | 63.6% | 12.9%
15 | O=C(CCl)N1CCN(S(=O)(=O)c2ccccc2)CC1 [PCM-0102468] | 0 | 0 | 0.08 | 0 | 12.6% | 54.9% | 15%
16 | O=C(CCl)N1CCN(S(=O)(=O)c2ccc(Cl)cc2)CC1 [PCM-0102704] | 0 | 0.25 | 0 | 0 | 2.5% | 18.8% | 2.7%
17 | O=C(CCl)NNC(=O)CC1CCS(=O)(=O)C1 (centres unmarked) [PCM-0102998] | 0 | 0 | 0.69 | 0 | 101% | 100% | 112%
18 | Cl.O=C(CCl)N1CCN(c2cccc(C(F)(F)F)c2)CC1 [PCM-0102239] | 0 | 0.08 | 0 | 0.07 | 4.2% | 28.2% | 19.6%

Second part, led by results:

Row | PCAF (PCAF) | NUDT7 (NUDT7) | OTUB2 (OTUB2 (OTUB2A)) | BSA (BSA) | SMILES | viability at 48 h, 10 µM (in vitro [1]) | viability at 48 h, 10 µM (in vitro [2]) | viability at 48 h, 10 µM (in vitro [3])
19 | 0 | 0 | 0.11 | 0 | COC(=O)C1CN(C(=O)CCl)c2ccccc2O1 (centres unmarked) [PCM-0102880] | 112% | 96.4% | 97.5%
20 | 0 | 0.07 | 0.35 | 0 | Cl.O=C(CCl)N1CCN(Cc2ccccc2)CC1 [PCM-0103063] | 72.1% | 81.1% | 60.1%
21 | 0 | 0.12 | 0 | 0 | C=CC(=O)Nc1ccnn1-c1ccccc1C [PCM-0102643] | 87.4% | 88.7% | 64.4%
22 | 0 | 0.16 | 0 | 0 | C=CC(=O)NCC1COc2ccccc2O1 (centres unmarked) [PCM-0102713] | 99% | 102% | 76.1%
23 | 0 | 0 | 0 | 0 | O=C(CCl)NC1CCSC1=O (centres unmarked) [PCM-0103062] | 97.6% | 88.2% | 90.7%
24 | 0 | 0 | 0 | 0 | CC1CCCN(C(=O)C2CCN(C(=O)CCl)CC2)C1 (centres unmarked) [PCM-0102933] | 92.6% | 80.1% | 57.9%
25 | 0 | 0 | 0 | 0 | C=CC(=O)N(C1CC1)C1CC(=O)NC1=O (centres unmarked) [PCM-0102646] | 103% | 98.4% | 94.9%
26 | 0 | 0 | 0.35 | 0 | O=C(CCl)NCc1ccco1 [PCM-0102671] | 102% | 86% | 86.2%
27 | 0 | 0.33 | 0 | 0 | N#Cc1c(NC(=O)CCl)sc2c1CCCCC2 [PCM-0102286] | 44.3% | 73.9% | 39.9%
28 | 0 | 0.31 | 0.47 | 0 | CC(NC(=O)CCl)c1ccc2ccccc2c1 (centres unmarked) [PCM-0102350] | 66% | 70.6% | 58.5%
29 | 0 | 0 | 0 | 0 | C=CC(=O)Nc1ccc(OC)c(F)c1 [PCM-0102995] | 104% | 106% | 80.5%
